Laboratory results reported in patent US9717681B2, “Formulations containing substituted imidazole derivatives” (R.P. Scherer Technologies, LLC, priority 2002, dated 2017).

Key:
[1] = Protocol A: fipamezole administered orally in solution to healthy volunteers, pharmacokinetics, safety and tolerability; type: in vivo, human; conditions: for Cmax / Tmax / AUC(0-t) / half-life: male, human, plasma; for Cmax: po, human plasma
Procedure: (§1) Fipamezole was administered orally in solution in increasing doses (0.5, 1, 3, 9, 18, 30 and 60 mg) to healthy volunteers (Caucasian males, 18-35 years old, 60-90 kg body weight). Blood samples were taken at intervals for pharmacokinetic evaluation up to 24 hours after each dose. Concentrations of fipamezole in plasma were measured with HPLC-MS/MS. Safety and tolerability were evaluated by standard safety laboratory determinations, ECG recordings, blood pressure and heart rate measurements and by adverse event questioning. The pharmacokinetics were evaluated using the Topfit 2.0 pharmacokinetic program. Cmax and tmax were read from the concentration vs. time curves and the apparent elimination phase half lives from the semi-logarithmic terminal part of the curve. AUC values were calculated both for infinity and up to the last measurable data point.

[2] = Pharmacokinetics of fast dispersing dosage form in dogs; type: in vivo, beagle dogs
Procedure: In this study fipamezole was administered orally as a fast dispersing tablet (formulation as for Example 3 above) (20 mg/kg) via the buccal cavity to pure bred beagle dogs (1 male and 1 female). Throughout the study (8 days, and 4 days pre-study) the subjects were monitored for viability, changes in behaviour, reaction to treatment and ill-health. In addition, body weight and food consumption were recorded. Blood was collected at 10, 20, 30 and 45 minutes and 1, 1.25, 1.5, 2, 2.5, 3, 4 and 8 hours after administration for plasma level analysis (LC/MS/MS method).

[3] = Protocol B: fipamezole administered as buccal spray to healthy volunteers, pharmacokinetics and tolerability; type: in vivo, human; conditions: for Cmax: human plasma
Procedure: as §1, with “point. […] The protocol used was substantially as for protocol A, except administration was by buccal spray (0.75, 1.5, 3, 7.5, 15, 30, 60 and 90 mg single doses).” for “point.”

[4] = beagle dogs, fast dispersing tablet (formulation as Example 3), 20 mg/kg via buccal cavity

Compound `CCC1(c2c[nH]cn2)Cc2ccc(F)cc2C1.Cl` (centres unmarked) [fipamezole, 4-(2-ethyl-5-fluoro-indan-2-yl)-1H-imidazole, hydrochloride salt] has a Cmax ([1]; 0.5 mg) of 0.05 ng/mL, a Cmax ([1]; 1 mg) of 0.08 ng/mL and a Cmax ([1]; 3 mg) of 0.23 ng/mL. The Cmax ([1]; 9 mg) was 1.09 ng/mL, the Cmax ([1]; 18 mg) was 1.31 ng/mL and the Cmax ([1]; 60 mg) was about 2 ng/mL. For the same compound, the Tmax ([1]; oral solution, dose 0.5 mg) was 0.88 h, the AUC(0-t) ([1]; oral solution, dose 1 mg) was 0.1 ng·h/mL and the Tmax ([1]; oral solution, dose 1 mg) was 0.83 h. It also gave an AUC(0-t) ([1]; oral solution, dose 3 mg) of 0.3 ng·h/mL, a Tmax ([1]; oral solution, dose 3 mg) of 0.67 h and an AUC(0-t) ([1]; oral solution, dose 9 mg) of 4.2 ng·h/mL. For the same compound, the Tmax ([1]; oral solution, dose 9 mg) was 0.67 h, the half-life ([1]; oral solution, dose 9 mg) was 2.2 h and the AUC(0-t) ([1]; oral solution, dose 18 mg) was 6 ng·h/mL. The Tmax ([1]; oral solution, dose 18 mg) was 0.83 h, the half-life ([1]; oral solution, dose 18 mg) was 2.4 h and the AUC(0-t) ([1]; oral solution, dose 30 mg) was 6.8 ng·h/mL. For the same compound, the Tmax ([1]; oral solution, dose 30 mg) was 1.25 h, the half-life ([1]; oral solution, dose 30 mg) was 3.1 h and the AUC(0-t) ([1]; oral solution, dose 60 mg) was 8.2 ng·h/mL. For the same compound, the Tmax ([1]; oral solution, dose 60 mg) was 1.06 h, the half-life ([1]; oral solution, dose 60 mg) was 1.8 h and the “Level of absorption vs dose” value ([1]; oral solution, 0.5-60 mg) was “not dose-proportional”. The Safety and tolerability ([1]; oral solution, 0.5-60 mg, healthy volunteers) was “safe and well tolerated”, the Absorption [2, 4] was “rapidly absorbed” and the “Time to peak plasma concentration” value [2, 4] was at most 10 min. For the same compound, the “Effect on body weight” value ([2]; beagle dogs, fast dispersing tablet, 20 mg/kg) was “no adverse effect”, the “Food consumption on the day of administration” value ([2]; beagle dogs, fast dispersing tablet, 20 mg/kg, probably due to frequent blood collection) was “low” and the Adverse clinical signs ([2]; female beagle dog, fast dispersing tablet (formulation as Example 3), 20 mg/kg via buccal cavity) was “No adverse clinical signs”. For the same compound, the Adverse clinical signs ([2]; male beagle dog, fast dispersing tablet (formulation as Example 3), 20 mg/kg via buccal cavity) was “elevated pulse rate”, the “Absorption from the buccal mucosa into systemic circulation” value [3] was “rapidly absorbed in a dose-dependent manner” and the “Relation between dose and Cmax and AUC0-inf values” [3] was “linear correlation”. The Tolerability ([3]; all doses 0.75-90 mg single doses) was “well tolerated”, the Tmax ([3]; dose 0.75 mg) was 0.72 h and the Tmax ([3]; dose 1.5 mg) was 0.72 h. The Tmax ([3]; dose 7.5 mg) was 0.72 h, the Tmax ([3]; dose 15 mg) was 0.72 h and the Tmax ([3]; dose 30 mg) was 0.72 h. The Cmax ([3]; dose 30 mg) was 49.23 ng/mL, the “Adverse effects seen after administration” value ([3]; frequently seen after administration) was “buccal erythema and whitening” and the Cmax ([3]; male, dose 0.75 mg, read-out: Cmax) was 1.53 ng/mL. For the same compound, the Cmax ([3]; male, dose 1.5 mg, read-out: Cmax) was 3.13 ng/mL, the Cmax ([3]; male, dose 3 mg, read-out: Cmax) was 4.76 ng/mL and the Cmax ([3]; male, dose 7.5 mg, read-out: Cmax) was 13 ng/mL. It also gave a Cmax ([3]; male, dose 15 mg, read-out: Cmax) of 25.9 ng/mL, a Cmax ([3]; male, dose 60 mg, read-out: Cmax) of 92.9 ng/mL and a Cmax ([3]; male, dose 90 mg, read-out: Cmax) of 172 ng/mL. For the same compound, the AUC(0-t) ([3]; male, human, plasma, dose 0.75 mg) was 4.6 ng·h/mL, the half-life ([3]; male, human, plasma, dose 0.75 mg, read-out: t1/2 (converted)) was 1.47 h and the AUC(0-t) ([3]; male, human, plasma, dose 1.5 mg) was 9.99 ng·h/mL. It also gave a half-life ([3]; male, human, plasma, dose 1.5 mg, read-out: t1/2 (converted)) of 1.65 h, an AUC(0-t) ([3]; male, human, plasma, dose 3 mg) of 15.4 ng·h/mL and a half-life ([3]; male, human, plasma, dose 3 mg, read-out: t1/2 (converted)) of 1.6 h. For the same compound, the Tmax ([3]; male, human, plasma, dose 3 mg, read-out: tmax) was 0.78 h, the AUC(0-t) ([3]; male, human, plasma, dose 7.5 mg) was 40.8 ng·h/mL and the half-life ([3]; male, human, plasma, dose 7.5 mg, read-out: t1/2 (converted)) was 1.78 h. The AUC(0-t) ([3]; male, human, plasma, dose 15 mg) was 84.1 ng·h/mL, the half-life ([3]; male, human, plasma, dose 15 mg, read-out: t1/2 (converted)) was 1.97 h and the AUC(0-t) ([3]; male, human, plasma, dose 30 mg) was 157 ng·h/mL. For the same compound, the half-life ([3]; male, human, plasma, dose 30 mg, read-out: t1/2 (converted)) was 2.12 h, the AUC(0-t) ([3]; male, human, plasma, dose 60 mg) was 231 ng·h/mL and the half-life ([3]; male, human, plasma, dose 60 mg, read-out: t1/2 (converted)) was 3 h. For the same compound, the Tmax ([3]; male, human, plasma, dose 60 mg, read-out: tmax) was 0.46 h, the AUC(0-t) ([3]; male, human, plasma, dose 90 mg) was 467 ng·h/mL and the half-life ([3]; male, human, plasma, dose 90 mg, read-out: t1/2 (converted)) was 3.16 h. For the same compound, the Tmax ([3]; male, human, plasma, dose 90 mg, read-out: tmax) was 0.53 h and the half-life ([3]; male, human, plasma, range over doses, longer times at larger doses, read-out: Apparent elimination phase half life) was 1.2 to 3.5 h.
